From US12668591B2, “1,2,4-oxadiazole derivatives as histone deacetylase 6 inhibitors” (Oryzon Genomics, S.A., priority 2017, dated 2026)

Target: T1, HDAC6 (Homo sapiens, UniProt Q9UBN7)
T1 sequence (Q9UBN7 1-1215): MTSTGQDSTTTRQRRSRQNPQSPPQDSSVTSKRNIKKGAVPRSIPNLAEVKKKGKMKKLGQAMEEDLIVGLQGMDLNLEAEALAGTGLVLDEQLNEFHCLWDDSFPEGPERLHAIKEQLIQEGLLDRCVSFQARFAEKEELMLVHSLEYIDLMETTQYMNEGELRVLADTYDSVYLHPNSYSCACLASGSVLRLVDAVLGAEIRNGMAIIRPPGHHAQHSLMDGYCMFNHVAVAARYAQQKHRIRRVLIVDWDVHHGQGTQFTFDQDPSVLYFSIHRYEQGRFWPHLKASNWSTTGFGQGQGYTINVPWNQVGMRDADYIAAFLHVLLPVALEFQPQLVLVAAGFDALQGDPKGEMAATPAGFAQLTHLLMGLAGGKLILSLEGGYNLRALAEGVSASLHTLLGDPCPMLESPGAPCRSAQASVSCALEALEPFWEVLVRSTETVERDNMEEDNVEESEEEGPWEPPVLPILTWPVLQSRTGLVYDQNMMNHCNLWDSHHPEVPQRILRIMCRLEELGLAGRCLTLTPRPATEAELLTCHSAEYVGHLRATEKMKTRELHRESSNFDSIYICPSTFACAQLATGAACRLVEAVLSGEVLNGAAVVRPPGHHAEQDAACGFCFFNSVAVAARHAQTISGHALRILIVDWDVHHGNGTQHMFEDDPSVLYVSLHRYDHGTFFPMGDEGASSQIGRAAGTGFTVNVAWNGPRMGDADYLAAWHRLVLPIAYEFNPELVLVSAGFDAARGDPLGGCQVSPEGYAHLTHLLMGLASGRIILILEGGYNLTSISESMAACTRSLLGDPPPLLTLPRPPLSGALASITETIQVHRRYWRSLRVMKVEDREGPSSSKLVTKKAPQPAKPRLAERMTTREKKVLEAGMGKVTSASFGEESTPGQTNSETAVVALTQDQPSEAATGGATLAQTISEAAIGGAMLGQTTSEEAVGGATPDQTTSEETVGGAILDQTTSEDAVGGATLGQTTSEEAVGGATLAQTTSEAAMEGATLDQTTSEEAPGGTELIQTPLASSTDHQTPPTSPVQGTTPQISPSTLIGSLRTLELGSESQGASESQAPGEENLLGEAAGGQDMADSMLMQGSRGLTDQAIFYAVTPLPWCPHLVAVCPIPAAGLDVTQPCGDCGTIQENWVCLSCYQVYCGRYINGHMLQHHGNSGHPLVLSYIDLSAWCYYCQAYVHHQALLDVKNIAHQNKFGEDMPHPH
Test: In vitro cell-based assay: acetylation levels of Alpha-Tubulin by Western Blot in MOLP8 cells
Parameters: endogenous in cells; host or cells: MOLP8
Conditions: 18 h, acetyl-alpha-tubulin relative band intensity, ACY-1215 1 μM = 100%
Experimental: In Vitro Cell-Based Assay
In order to determine the cellular activity of HDAC6 upon treatment with HDAC6 inhibitors, acetylation levels of Alpha-Tubulin (a HDAC6-specific substrate) were measured by Western Blot. For this, MOLP8 cells were seeded in 6-well plates at a cell density of 500.000 cells/well and treated with the selected compounds at 5 and 1 μM for 18 h at 37° C. and 5% CO2 in a humidified tissue culture incubator. Consecutively, cell pellets were collected and whole protein extracts prepared using RIPA buffer (SIGMA) supplemented with 1× protease inhibitors (cOmplete mini, Roche). Protein concentration was determined with Bradford's reagent (Bio-Rad) as per manufacturer's instructions, and 7 μg of total protein were loaded into pre-cast 10% NuPAGE Novex gels (Life Technologies). Gels were run in […] (Life Technologies) and proteins were transferred using the iBlot 2 Dry Blotting System (Life Technologies). Blots were subsequently rinsed in distilled water and stained with Ponceau S solution (SIGMA). Blots were then washed in distilled water to remove Ponceau excess and scanned with the Epson Perfection V600 Photo professional Scanner. After this, blots were de-stained and blocked in 5% milk/PBS-Tween 0.1% for 1 h at room temperature followed by incubation with anti-Acetyl-alpha Tubulin (SIGMA cat. #T7451, 1:10.000 dilution) and anti-Beta-actin (SIGMA, cat. #A5316, 1:2.000 dilution) primary antibodies in 5% milk/PBS-T 0.1%, overnight at 4° C. on a shaking platform. After incubation, blots were washed 3 times for 5 minutes each in PBS-Tween 0.5% and incubated with anti-mouse HRP-conjugated secondary antibody (Jackson Immuno Research, cat. #115-035-068) at 1:8.000 in 5% milk/PBS-Tween 0.1%, 1 h at room temperature on a shaking platform. After 3 washes of 5 minutes each with PBS-Tween 0.5% and 1 wash in PBS 1×, blots were developed with ECL Plus (GE Healthcare) and the chemiluminescent reaction imaged with the G:Box Chemi XRQ (Syngene) imaging system. WB and Ponceau images were analysed with ImageJ software, WB band intensities normalized by either total protein or Beta-actin content and made relative to ACY-1215 1 μM (equivalent to 100%). ACY-1215 is a HDAC6 inhibitor, and is also known as ricolinostat, with chemical name 2-(diphenylamino)-N-[7-(hydroxyamino)-7-oxoheptyl]-5-pyrimidinecarboxamide. Percentage of band intensities was classified as follows: […]

## CCCn1ccc2cc(-c3cc(-c4noc(C(F)(F)F)n4)ccn3)ncc21 [Example 1a, 3-(2-(1-Propyl-1H-pyrrolo[2,3-c]pyridin-5-yl)pyridin-4-yl)-5-(trifluoromethyl)-1,2,4-oxadiazole]
  Cellular activity @1 uM: − (<50)
  Cellular activity @5 uM: ++ (150-300)

## COCCn1nc(-c2cc(-c3noc(C(F)(F)F)n3)ccn2)c2ncccc21 [Example 1aaa, 3-(2-(1-(2-Methoxyethyl)-1H-pyrazolo[4,3-b]pyridin-3-yl)pyridin-4-yl)-5-(trifluoromethyl)-1,2,4-oxadiazole]
  Cellular activity @1 uM: + (50-150)
  Cellular activity @5 uM: + (50-150)

## CCn1nc(-c2cc(-c3noc(C(F)(F)F)n3)ccn2)c2ncccc21 [Example 1aab, 3-(2-(1-Ethyl-1H-pyrazolo[4,3-b]pyridin-3-yl)pyridin-4-yl)-5-(trifiuoromethyl)-1,2,4-oxadiazole]
  Cellular activity @1 uM: + (50-150)
  Cellular activity @5 uM: + (50-150)

## Cn1ccnc1CCn1nc(-c2cc(-c3noc(C(F)(F)F)n3)ccn2)c2ncccc21 [Example 1aac]
  Cellular activity @1 uM: + (50-150)
  Cellular activity @5 uM: ++ (150-300)

## Cn1cc(Cn2ccc3cnc(-c4cc(-c5noc(C(F)(F)F)n5)ccn4)cc32)cn1 [Example 1aad, 3-(2-(1-((1-Methyl-1H-pyrazol-4-yl)methyl)-1H-pyrrolo[3,2-c]pyridin-6-yl)pyridin-4-yl)-5-(trifluoromethyl)-1,2,4-oxadiazole]
  Cellular activity @1 uM: + (50-150)
  Cellular activity @5 uM: ++ (150-300)

## O=C(CCc1ccccc1)Nc1ccnc(-c2cc(-c3noc(C(F)(F)F)n3)ccn2)c1 [Example 1ad, 3-Phenyl-N-(4′-(5-(trifluoromethyl)-1,2,4-oxadiazol-3-yl)-[2,2′-bipyridin]-4-yl)propanamide]
  Cellular activity @1 uM: + (50-150)
  Cellular activity @5 uM: + (50-150)

## O=C(NC1CCCNC1)c1ccnc(-c2cc(-c3noc(C(F)(F)F)n3)ccn2)c1 (centres unmarked) [Example 1af, N-(Piperidin-3-yl)-4′-(5-(trifluoromethyl)-1,2,4-oxadiazol-3-yl)-[2,2′-bipyridine]-4-carboxamide]
  Cellular activity @1 uM: + (50-150)
  Cellular activity @5 uM: + (50-150)

## FC(F)(F)c1nc(-c2ccnc(-c3ccc(OCCCn4cccn4)cn3)c2)no1 [Example 1ag, 3-(5′-(3-(1H-Pyrazol-1-yl)propoxy)-[2,2′-bipyridin]-4-yl)-5-(trifluoromethyl)-1,2,4-oxadiazole]
  Cellular activity @1 uM: − (<50)
  Cellular activity @5 uM: + (50-150)

## CCCn1cc(COC)c2cc(-c3cc(-c4noc(C(F)(F)F)n4)ccn3)ncc21 [Example 1ai, 3-(2-(3-(Methoxymethyl)-1-propyl-1H-pyrrolo[2,3-c]pyridin-5-yl)pyridin-4-yl)-5-(trifluoromethyl)-1,2,4-oxadiazole]
  Cellular activity @1 uM: − (<50)
  Cellular activity @5 uM: + (50-150)

## CCCCn1cc(CO)c2cc(-c3cc(-c4noc(C(F)(F)F)n4)ccn3)ncc21 [Example 1aj, (1-butyl-5-(4-(5-(trifluoromethyl)-1,2,4-oxadiazol-3-yl)pyridin-2-yl)-1H-pyrrolo[2,3-c]pyridin-3-yl)methanol]
  Cellular activity @1 uM: + (50-150)
  Cellular activity @5 uM: + (50-150)

## CN1CCC(CNC(=O)c2ccnc(-c3cc(-c4noc(C(F)(F)F)n4)ccn3)c2)CC1 [Example 1am, N-((1-Methylpiperidin-4-yl)methyl)-4′-(5-(trifluoromethyl)-1,2,4-oxadiazol-3-yl)-[2,2′-bipyridine]-4-carboxamide]
  Cellular activity @1 uM: + (50-150)
  Cellular activity @5 uM: + (50-150)

## CN1CCC(CNC(=O)c2ccc(-c3cc(-c4noc(C(F)(F)F)n4)ccn3)nc2)CC1 [Example 1an, N-((1-Methylpiperidin-4-yl)methyl)-4′-(5-(trifluoromethyl)-1,2,4-oxadiazol-3-yl)-[2,2′-bipyridine]-5-carboxamide]
  Cellular activity @1 uM: + (50-150)
  Cellular activity @5 uM: + (50-150)

## FC(F)(F)CN1CCC(n2ccc3cnc(-c4cc(-c5noc(C(F)(F)F)n5)ccn4)cc32)CC1 [Example 1ao, 3-(2-(1-(1-(2,2,2-Trifluoroethyl)piperidin-4-yl)-1H-pyrrolo[3,2-c]pyridin-6-yl)pyridin-4-yl)-5-(trifluoromethyl)-1,2,4-oxadiazole]
  Cellular activity @1 uM: + (50-150)
  Cellular activity @5 uM: ++ (150-300)

## COCCn1c(C(=O)N(C)C)cc2cc(-c3cc(-c4noc(C(F)(F)F)n4)ccn3)ncc21 [Example 1ar, 1-(2-Methoxyethyl)-N,N-dimethyl-5-(4-(5-(trifluoromethyl)-1,2,4-oxadiazol-3-yi)pyridin-2-yl)-1H-pyrrolo[2,3-c]pyridine-2-carboxamide]
  Cellular activity @1 uM: + (50-150)
  Cellular activity @5 uM: + (50-150)

## COCCn1cc(-c2cn[nH]c2)c2cc(-c3cc(-c4noc(C(F)(F)F)n4)ccn3)ncc21 [Example 1as, 3-(2-(1-(2-Methoxyethyl)-3-(1H-pyrazol-4-yl)-1H-pyrrolo[2,3-c]pyridin-5-yl)pyridin-4-yl)-5-(trifluoromethyl)-1,2,4-oxadiazole]
  Cellular activity @1 uM: + (50-150)
  Cellular activity @5 uM: + (50-150)

## Cn1ccc2cc(-c3cc(-c4noc(C(F)(F)F)n4)ccn3)ncc21 [Example 1at, 3-(2-(1-Methyl-1H-pyrrolo[2,3-c]pyridin-5-yl)pyridin-4-yl)-5-(trifluoromethyl)-1,2,4-oxadiazole]
  Cellular activity @1 uM: − (<50)
  Cellular activity @5 uM: + (50-150)

## FC(F)(F)c1nc(-c2ccnc(-c3cc4c(ccn4Cc4cccnc4)cn3)c2)no1 [Example 1av, 3-(2-(1-(Pyridin-3-ylmethyl)-1H-pyrrolo[3,2-c]pyridin-6-yl)pyridin-4-yl)-5-(trifluoromethyl)-1,2,4-oxadiazole]
  Cellular activity @1 uM: + (50-150)
  Cellular activity @5 uM: ++ (150-300)

## CN(CCO)CCCOc1ccc(-c2cc(-c3noc(C(F)(F)F)n3)ccn2)nc1 [Example 1ax, 2-(Methyl(3-((4′-(5-(trifluoromethyl)-1,2,4-oxadiazol-3-yl)-[2,2′-bipyridin]-5-yl)oxy)propyl)amino)ethan-1-ol]
  Cellular activity @1 uM: + (50-150)
  Cellular activity @5 uM: + (50-150)

## COCCn1ncc2cc(-c3cc(-c4noc(C(F)(F)F)n4)ccn3)ncc21 [Example 1ay, 3-(2-(1-(2-Methoxyethyl)-1H-pyrazolo[3,4-c]pyridin-5-yl)pyridin-4-yl)-5-(trifluoromethyl)-1,2,4-oxadiazole]
  Cellular activity @1 uM: − (<50)
  Cellular activity @5 uM: + (50-150)
